Test results published in US6759397B2, “Ginsenoside chemotherapy” (The University of British Columbia, priority 2000, dated 2004).
Where two headings read alike, the source gives them in different places.

How the values were obtained:
MDA435/LCC6M cells [1] = system: MDA435/LCC6M cells
Protocol: (§1) Human breast cancer cells MDA435/LCC6 cells, both wild-type (MDA435/LCC6W) or a drug resistant strain expressing a transfected multidrug resistant gene encoding P-glycoprotein (MDA435/LCC6M), were incubated with 20 μg/ml or 30 μg/ml of Rh2 in the presence of paclitaxel at various concentrations. Viable cells were counted 24 hrs after treatment.

[2] = system: human prostate cancer cells LNCaP; test: Cytotoxicity of Rh2 with mitoxantrone or paclitaxel, cellular viability of LNCaP cells; format: cell-based
Source text: In one aspect, the invention provides therapeutically synergistic effects of Rh2 with chemotherapeutic compounds.

MDA435/LCC6M cells [3] = test: Viable cell count, Rh2 with paclitaxel, multidrug resistant breast cancer cells expressing P-glycoprotein; details: for IC50: Homo sapiens, MDA435, 24 h
Protocol: as §1

[4] = system: Mesothelioma cells (MS-1 cells); test: Viability of non-Pgp multidrug resistant mesothelioma cells, Rh2 with cisplatin or paclitaxel; format: cell-based
MDA435/LCC6W cells = test: Viable cell count, Rh2 with paclitaxel, wild-type breast cancer cells; format: cell-based; details: Homo sapiens, L6W (wild-type MDA435/LCC6W)
Protocol: as §1

Row | IC50 (MDA435/LCC6W cells; no Rh2, viable cells counted 24 hrs after treatment, read-out: Calculated IC50 of paclitaxel, Paclitaxel alone) [nM] | IC50 (MDA435/LCC6W cells; with 20 μg/ml Rh2, 24 hrs, read-out: Calculated IC50 of paclitaxel, Pac. + 20 μg/ml Rh2) [nM] | IC50 (MDA435/LCC6W cells; with 30 μg/ml Rh2, 24 hrs, read-out: Calculated IC50 of paclitaxel, Pac. + 30 μg/ml Rh2) [nM] | IC50 (MDA435/LCC6M cells [3]; read-out: Calculated IC50 of paclitaxel, Pac. + 20 μg/ml Rh2) [nM] | IC50 (MDA435/LCC6M cells [3]; read-out: Calculated IC50 of paclitaxel, Pac. + 30 μg/ml Rh2) [nM] | IC50 (MDA435/LCC6M cells [3]; read-out: Calculated IC50 of paclitaxel, Paclitaxel alone) [nM] | Structure (SMILES) | Effect of Rh2 on cytotoxicity of paclitaxel (MDA435/LCC6M cells [1]) | Cytotoxicity of Rh2 alone ([2]; 20 μg/ml Rh2, LNCaP) | Effect of Rh2 on cytotoxicity of paclitaxel ([2]; 20 μg/ml Rh2, particularly 0.1 nM and 1 nM paclitaxel, LNCaP) | Effect of Rh2 on cytotoxicity of mitoxantrone ([2]; 20 μg/ml Rh2, wide range of mitoxantrone concentrations, LNCaP) | Effect of Rh2 alone on the cells (MDA435/LCC6M cells [3]; MDA435/LCC6M, 20 or 30 μg/ml Rh2, 24 hrs) | Synergistic effect of Rh2 with cisplatin ([4]; 20 μg/ml Rh2, various cisplatin concentrations) | Synergistic effect of Rh2 with paclitaxel ([4]; 20 μg/ml Rh2, various paclitaxel concentrations) | Paclitaxel concentration at which cytotoxicity was shown in the presence of Rh2 (MDA435/LCC6M cells [3]; MDA435/LCC6M, with Rh2, as low as) [nM]
1 | – | – | – | – | – | – | CC(C)=CCC[C@](C)(O)[C@H]1CC[C@]2(C)[C@@H]1[C@H](O)C[C@@H]1[C@@]3(C)CC[C@H](O[C@@H]4O[C@H](CO)[C@@H](O)[C@H](O)[C@H]4O)C(C)(C)[C@@H]3CC[C@]12C [Rh2] | unexpectedly and significantly enhanced by Rh2 | little or no significant cytotoxicity alone | added significantly to the cytotoxicity of paclitaxel | added significantly to the cytotoxicity of mitoxatron | little or no effect on the cells | significant | significant | –
2 | 248 | 75 | 25 | 0.15 | < 0.03 | 631 | CC(=O)O[C@H]1C(=O)[C@@]2(C)[C@H]([C@H](OC(=O)c3ccccc3)[C@]3(O)C[C@H](OC(=O)[C@H](O)[C@@H](NC(=O)c4ccccc4)c4ccccc4)C(C)=C1C3(C)C)[C@]1(OC(C)=O)CO[C@@H]1C[C@@H]2O [Paclitaxel] | – | – | – | – | – | – | – | 0.1
